In patent US9839632B2, “Methods and compositions using 4-amino-2-(2,6-dioxo-piperidine-3-yl)-isoindoline-1,3-dione for treatment and management of central nervous system cancers” (CELGENE CORPORATION, priority 2013, dated 2017):

Tests used:
[1] = tested on: macrophages and NK cells in the CNS lymphoma microenvironment; experiment: Immunohistochemistry/immunofluorescence of CNS lymphoma microenvironment, Raji model; type: in vivo, athymic mice; settings: P<0.05 vs control
Text: Immunohistochemistry (“IHC”) assessment for macrophages: Paraffin sections (10 μm thick) were fixed, blocked, and immunostained with the appropriate antibody: Iba-1 (BD Biosciences) for macrophages, Ym1 (Stemcell Technologies) as a marker for M2 polarization, iNOS (Calbiochem) as a marker for M1 polarization. Aperio ScanScope XT slide scanner and image analysis system (Aperio Spectrum, Vista, Calif.) were used for quantitative assessment of macrophages. Three equal-size (0.4 mM2) fields in macrophage-dense areas were selected in the contralateral brain and the tumor for counting. Data were shown as an average of the three fields.
Immunofluorescence for natural killer cells: Frozen sections (10 μm thick) were permeabilized with PBS-0.2% Triton X-100 for 5 min. After blocking with PBS-5% goat serum-0.02% Triton X-100 for 45 mins at 37° C., the sections were incubated overnight at 4° C. with Rat monoclonal CD335 antibody (a marker for NK cells, 1:200, Biolegend). After washing, sections were incubated with the Alexa Fluor 594 Goat anti-Rat IgG secondary antibody (1:1000, Life Technologies) at 37° C. for 1.5 h. Finally, Vectashield H-1200 mounting medium with DAPI (Vector Laboratories) was used to stain the nuclei. Images were obtained on a Zeiss LSM 510 META confocal microscope. Six equal-size (0.2 mM^2) fields in NK-dense areas were selected in the tumor for taking pictures. Fluorescence intensity data were generated by Zeiss LSM 510 and shown as an average of six fields.
Statistical analysis: One-way ANOVA was used to compare the difference between the groups at each time point. Two-way repeated measures ANOVA was used to analyze the interaction between the time and treatment. Survival analysis was performed by Kaplan Meier method. Kaplan Meier survival curves were generated using Prism4 software and the statistical difference between curves was derived with a log-rank test. P<0.05 was considered significant.

[2] = tested on: U937 cells cocultured with Raji lymphoma cells; experiment: Polarization of U937 cocultured with Raji lymphoma cells with or without YTS NK cells; type: cell-based, human; settings: for M2 polarization of U937 cells (FXIIIA, pSTAT6): coculture with Raji lymphoma cells, without NK cells; for polarization status of U937 cells (iNOS, pSTAT1): triple culture with Raji lymphoma cells and YTS NK cells, 10 ug/ml 48 hours
Method: Raji lymphoma cells (ATCC), U937 human monocyte cells (ATCC) and YTS NK cells (a gift from Dr. Pamela A. Becker) were cultured at 37° C. in a humidified incubator under 5% CO2 and 95% air in RPMI-1640 supplemented with 20% FCS and 1% penicillin-streptomycin, and 1% nonessential amino acids.
OCI-LY10 lymphoma cells (a gift from Arthur L. Shaffer III) were cultured at 37° C. in a humidified incubator under 5% CO2 and 95% air in IMDM supplemented with 20% FCS and 1% penicillin-streptomycin. Co-culture of lymphoma cells and U937 monocytes: Raji and U937 monocytes were cultured at 37° C. in a humidified incubator under 5% CO2 and 95% air in RPMI-1640 supplemented with 20% FCS and 1% penicillin-streptomycin, and 1% nonessential amino acids. OCI-LY10 and U937 monocytes were cultured at 37° C. in a humidified incubator under 5% CO2 and 95% air in IMDM supplemented with 20% FCS and 1% penicillin-streptomycin. Triple culture of lymphoma cells, U937 monocytes and YTS cells: Raji, U937 and YTS cells were cultured at 37° C. in a humidified incubator under 5% CO2 and 95% air in RPMI-1640 supplemented with 20% FCS and 1% penicillin-streptomycin, and 1% nonessential amino acids. OCI-LY10, U937 and YTS were cultured at 37° C. in a humidified incubator under 5% CO2 and 95% air in IMDM supplemented with 20% FCS and 1% penicillin-streptomycin.
(§1) Treatments: In experiments in which IL-4 was used to induce M2 polarization of macrophages, cells were treated with IL-4 (20 ng/ml) for 48 hours followed by treatment with 4-amino-2-(2,6-dioxo-piperidine-3-yl)-isoindoline-1,3-dione (10 ug/ml) or DMSO control for 48 hours. In triple cell culture experiments with lymphoma cells, macrophages, and NK cells, the treatment was with either DMSO or 4-amino-2-(2,6-dioxo-piperidine-3-yl)-isoindoline-1,3-dione (10 ug/ml) for 48 hours.
Immunofluorescence for analysis of macrophage polarization in cell culture experiments: Live cells were fixed in 10% formalin for 30 minutes at room temperature followed by permeabilization with PBS-0.2% Triton X-100 for 2 min. After blocking with PBS-5% goat serum-0.02% Triton X-100 for 30 minutes at 37° C., the cells were incubated overnight at 4° C. with rat monoclonal F4/80 antibody (for primary microglia cells, 1:200 Abcam), rat monoclonal CD11b (for U937, 1:200 Biolegend), rabbit polyclonal Ym1 antibody (for primary microglia cells and primary peritoneal macrophages, 1:200, Stemcell Technologies, Vancouver, Canada), rabbit polyclonal FXIII A antibody (for U937, 1:200, Abcam), mouse monoclonal p-STAT1 antibody (1:200, Abcam), rabbit polyclonal p-STAT6 antibody (1:200, Abcam) or rabbit iNOS antibody (1:200, Calbiochem). […]

[3] = tested on: primary murine microglia cells cocultured with OCI-LY10 lymphoma cells; experiment: Polarization of primary murine microglia cocultured with OCI-LY10 lymphoma cells with or without primary murine NK cells; type: cell-based; settings: for M2 polarization of microglia cells (FXIIIA, pSTAT6): coculture with OCI-LY10 lymphoma cells, without NK cells; for polarization status of microglia cells (iNOS, pSTAT1): triple culture with OCI-LY10 lymphoma cells and primary murine NK cells, 10 ug/ml 48 hours
Method: as §1
Immunofluorescence for analysis of macrophage polarization in cell culture experiments: Live cells were fixed in 10% formalin for 30 minutes at room temperature followed by permeabilization with PBS-0.2% Triton X-100 for 2 min. After blocking with PBS-5% goat serum-0.02% Triton X-100 for 30 minutes at 37° C., the cells were incubated overnight at 4° C. with rat monoclonal F4/80 antibody (for primary microglia cells, 1:200 Abcam), rat monoclonal CD11b (for U937, 1:200 Biolegend), rabbit polyclonal Ym1 antibody (for primary microglia cells and primary peritoneal macrophages, 1:200, Stemcell Technologies, Vancouver, Canada), rabbit polyclonal FXIII A antibody (for U937, 1:200, Abcam), mouse monoclonal p-STAT1 antibody (1:200, Abcam), rabbit polyclonal p-STAT6 antibody (1:200, Abcam) or rabbit iNOS antibody (1:200, Calbiochem). After washing, cells were incubated with the Alexa Fluor 594 Goat anti-Rat IgG secondary antibody (1:1000, Life Technologies) and FITC Donkey anti-rabbit IgG secondary antibody (1:1000, Life technology) or FITC Goat anti-mouse IgG secondary antibody (1:1000, Sigma) at 37° C. for 45 minutes. Finally, Vectashield H-1200 mounting medium with DAPI (Vector Laboratories) was used to stain the nuclei. Images were obtained on a Zeiss LSM 510 META confocal microscope.

[4] = listed as 4-amino-2-(2,6-dioxo-piperidine-3-yl)-isoindoline-1,3-dione

SMILES: Nc1cccc2c1C(=O)N(C1CCC(=O)NC1=O)C2=O (stereo not drawn) [Pomalidomide, 4-amino-2-(2,6-dioxo-piperidine-3-yl)-isoindoline-1,3-dione]
- CD335 positive NK cells in CNS tumors [1]: significantly increased
- Ym1-expressing cells (M2-polarized macrophages) in tumor [1]: significantly decreased
- iNOS-expressing cells (M1-polarized macrophages) in tumor [1]: increased
- CD335 positive NK cells in CNS tumors [1, 4]: significant increase
- Ym1-expressing cells (M2-polarized macrophages) in tumor [1, 4]: significant decrease
- iNOS-expressing cells (M1-polarized macrophages) in tumor [1, 4]: significant increase
- brain macrophages (Iba-1 positive cells) ([1]; contralateral brain and tumor): significantly increased
- M2 polarization of U937 cells (FXIIIA, pSTAT6) [2]: reversed
- M2 polarization of U937 cells (FXIIIA, pSTAT6) [2, 4]: prevented the M2 polarization of macrophages but did not induce them into M1 polarization
- polarization status of U937 cells (iNOS, pSTAT1) [2]: from M2 to M1
- polarization status of U937 cells (iNOS, pSTAT1) [2, 4]: became M1-polarized
- M2 polarization of microglia cells (FXIIIA, pSTAT6) [3]: reversed
- M2 polarization of microglia cells (FXIIIA, pSTAT6) [3, 4]: M2 polarization was not seen
- polarization status of microglia cells (iNOS, pSTAT1) [3]: from M2 to M1
- polarization status of microglia cells (iNOS, pSTAT1) [3, 4]: became M1-polarized
